# Experimental data taken from PubChem BioAssay AID192 (DTP/NCI, 2004).
# Several values for one entry are separate records, joined by “and”; a condition that tells them apart may be missing. Identical values can stand only once. Toxic doses and inconclusive results are not listed.
# Tested on: BDF1 mice, B16 melanoma ip, median survival T/C
# Assay: NCI In Vivo Anticancer Drug Screen. Data for tumor model B16 Melanoma (intraperitoneal) in B6D2F1 (BDF1) mice
# Conditions: endpoint: median survival time, higher = longer survival
# Summary of the method: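 Survival or tumor size is measured after treatment of tumor-bearing mice and normalised to the vehicle-treated control group.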
# [1] = dose: 3.13 mg/kg/injection, schedule: Q01DX009 (ip), vehicle: saline
# [2] = dose: 6.25 mg/kg/injection, schedule: Q01DX009 (ip), vehicle: saline
# [3] = dose: 25.0 mg/kg/injection, schedule: Q01DX009 (ip), vehicle: Klucel (hydroxypropylcellulose) (HPC)
# [4] = dose: 50.0 mg/kg/injection, schedule: Q01DX009 (ip), vehicle: Klucel (hydroxypropylcellulose) (HPC)
# [5] = dose: 75.0 mg/kg/injection, schedule: Q01DX009 (ip), vehicle: Klucel (hydroxypropylcellulose) (HPC)
# [6] = dose: 150.0 mg/kg/injection, schedule: Q01DX009 (ip), vehicle: Klucel (hydroxypropylcellulose) (HPC)
# [7] = dose: 300.0 mg/kg/injection, schedule: Q01DX009 (ip), vehicle: Klucel (hydroxypropylcellulose) (HPC)
# [8] = dose: 25.0 mg/kg/injection, schedule: Q01DX009 (ip), vehicle: saline with Tween-80
# [9] = dose: 50.0 mg/kg/injection, schedule: Q01DX009 (ip), vehicle: saline with Tween-80
# [10] = dose: 100.0 mg/kg/injection, schedule: Q01DX009 (ip), vehicle: saline with Tween-80
# [11] = dose: 50.0 mg/kg/injection, schedule: Q04DX003 (ip), vehicle: Klucel (hydroxypropylcellulose) (HPC)
# [12] = dose: 100.0 mg/kg/injection, schedule: Q04DX003 (ip), vehicle: Klucel (hydroxypropylcellulose) (HPC)
# [13] = dose: 200.0 mg/kg/injection, schedule: Q04DX003 (ip), vehicle: Klucel (hydroxypropylcellulose) (HPC)
# [14] = dose: 100.0 mg/kg/injection, schedule: Q01DX009 (ip), vehicle: Klucel (hydroxypropylcellulose) (HPC)
# [15] = dose: 200.0 mg/kg/injection, schedule: Q01DX009 (ip), vehicle: Klucel (hydroxypropylcellulose) (HPC)
# [16] = dose: 12.5 mg/kg/injection, schedule: Q01DX009 (ip), vehicle: saline with Tween-80
# [17] = dose: 400.0 mg/kg/injection, schedule: Q04DX003 (ip), vehicle: Klucel (hydroxypropylcellulose) (HPC)
# [18] = dose: 400.0 mg/kg/injection, schedule: Q01DX009 (ip), vehicle: Klucel (hydroxypropylcellulose) (HPC)
# [19] = dose: 3.12 mg/kg/injection, schedule: Q01DX009 (ip), vehicle: Klucel (hydroxypropylcellulose) (HPC)
compound,measurement,setting,value
CS(=O)(=O)OCCN1CCC2(CC1)SSC1(CCN(CCOS(C)(=O)=O)CC1)S2,T/C,[1],106 % of control
same,T/C,[2],106 % of control
CC(C)(C[NH-])C[NH-].[Cl][Pt+2][Cl],T/C,"dose: 0.5 mg/kg/injection, schedule: Q04DX003 (ip), vehicle: water",164 % of control
same,T/C,"dose: 1.0 mg/kg/injection, schedule: Q04DX003 (ip), vehicle: water",165 % of control and 183 % of control
same,T/C,"dose: 2.0 mg/kg/injection, schedule: Q04DX003 (ip), vehicle: water",161 % of control and 201 % of control
same,T/C,"dose: 4.0 mg/kg/injection, schedule: Q04DX003 (ip), vehicle: water",213 % of control
CN1CCN(c2ccc(Cl)cc2)CC1,T/C,[3],100 % of control
same,T/C,[4],100 % of control
[O-]c1c[n+](C23CCC(c4ccccc42)c2ccccc23)no1,T/C,[5],102 % of control
same,T/C,[6],100 % of control
same,T/C,[7],108 % of control
COC1OC2COC(c3ccccc3)OC2C(O)C1N (stereo not drawn),T/C,[8],95 % of control
same,T/C,"dose: 33.0 mg/kg/injection, schedule: Q04DX003 (ip), vehicle: saline with Tween-80",91 % of control
same,T/C,[9],95 % of control
same,T/C,"dose: 75.0 mg/kg/injection, schedule: Q04DX003 (ip), vehicle: saline with Tween-80",93 % of control
same,T/C,[10],90 % of control
CCN(CC)N=Nc1ccccc1-c1nc(N)c2ccccc2n1,T/C,"dose: 25.0 mg/kg/injection, schedule: Q04DX003 (ip), vehicle: Klucel (hydroxypropylcellulose) (HPC)",94 % of control
same,T/C,[11],109 % of control
same,T/C,[12],96 % of control
same,T/C,[13],103 % of control
CC(=O)C1CCC2C3CCC4=CC(=O)CC4(C)C3CCC12C (stereo not drawn),T/C,"dose: 100.0 mg/kg/injection, schedule: Q04DX003 (ip), vehicle: saline with Tween-80",94 % of control
same,T/C,"dose: 200.0 mg/kg/injection, schedule: Q04DX003 (ip), vehicle: saline with Tween-80",105 % of control
O=C(O)c1cccc2c1S(=O)(=O)c1ccccc1C2=O,T/C,[5],100 % of control
same,T/C,[6],97 % of control
same,T/C,[7],100 % of control
CC[N+](CC)(CC)CCC[n+]1ccc(/C=N\O)cc1,T/C,"dose: 25.0 mg/kg/injection, schedule: Q01DX009 (ip), vehicle: saline",111 % of control
same,T/C,"dose: 50.0 mg/kg/injection, schedule: Q01DX009 (ip), vehicle: saline",111 % of control
same,T/C,"dose: 100.0 mg/kg/injection, schedule: Q01DX009 (ip), vehicle: saline",111 % of control
CC(=O)OCC1OC(S[As](C)C)C(OC(C)=O)C(OC(C)=O)C1OC(C)=O (stereo not drawn),T/C,[4],107 % of control
same,T/C,[14],96 % of control
CCC(C)c1ccccc1OC(=O)Nc1ccc(OC)cc1 (stereo not drawn),T/C,[4],100 % of control
same,T/C,[11],106 % of control
same,T/C,[14],103 % of control
same,T/C,[12],106 % of control
same,T/C,[15],100 % of control
same,T/C,[13],103 % of control
S=C(NNc1ccccc1)Nc1ccccc1,T/C,[3],97 % of control
same,T/C,[4],106 % of control
COC(=O)[c-]1[c-][c-][c-][c-]1.COC(=O)[c-]1[c-][c-][c-][c-]1.[Fe],T/C,"dose: 18.0 mg/kg/injection, schedule: Q01DX009 (ip), vehicle: Klucel (hydroxypropylcellulose) (HPC)",95 % of control and 103 % of control
same,T/C,"dose: 28.75 mg/kg/injection, schedule: Q01DX009 (ip), vehicle: Klucel (hydroxypropylcellulose) (HPC)",104 % of control and 106 % of control
same,T/C,"dose: 33.75 mg/kg/injection, schedule: Q04DX003 (ip), vehicle: Klucel (hydroxypropylcellulose) (HPC)",114 % of control
same,T/C,"dose: 45.0 mg/kg/injection, schedule: Q01DX009 (ip), vehicle: Klucel (hydroxypropylcellulose) (HPC)",103 % of control and 118 % of control
same,T/C,"dose: 67.5 mg/kg/injection, schedule: Q04DX003 (ip), vehicle: Klucel (hydroxypropylcellulose) (HPC)",92 % of control
CCOC(=O)CN1CCC(C2(c3cc4ccccc4[nH]3)OCCO2)CC1,T/C,[4],105 % of control
same,T/C,[14],93 % of control
same,T/C,[15],99 % of control
CCCCCC#CC(=O)OC,T/C,[16],102 % of control
same,T/C,[8],86 % of control
same,T/C,[9],86 % of control
CCc1ccc(NC(=O)Nc2ccccc2C)cc1,T/C,[12],96 % of control
same,T/C,[13],96 % of control
same,T/C,[17],100 % of control
COc1ccc2c(c1)c(C#N)cc[n+]2C,T/C,[1],102 % of control
same,T/C,[2],100 % of control
CC(=O)Nc1ccc(Cl)c(Cl)c1,T/C,[4],116 % of control
same,T/C,[14],121 % of control
O=C(CCl)N1CCC2(CC1)SSC1(CCN(C(=O)CCl)CC1)S2,T/C,[16],100 % of control
same,T/C,[8],90 % of control
Cc1cnc2c(NC(=O)CCl)nn(C)c2n1,T/C,[4],103 % of control
same,T/C,[14],101 % of control
C1CC[N-]CC1.C1CC[N-]CC1.C1CC[N-]CC1.C1CC[N-]CC1.[Cl][Co][Cl],T/C,"dose: 37.5 mg/kg/injection, schedule: Q01DX009 (ip), vehicle: saline with Tween-80",103 % of control
same,T/C,"dose: 75.0 mg/kg/injection, schedule: Q01DX009 (ip), vehicle: saline with Tween-80",87 % of control
CCCN(CCC)C(=O)c1ccncc1,T/C,[14],93 % of control
same,T/C,[18],95 % of control
N#CC(C#N)=C/C=C/c1cccc([N+](=O)[O-])c1,T/C,[19],110 % of control
same,T/C,"dose: 6.25 mg/kg/injection, schedule: Q01DX009 (ip), vehicle: Klucel (hydroxypropylcellulose) (HPC)",104 % of control
same,T/C,"dose: 12.5 mg/kg/injection, schedule: Q01DX009 (ip), vehicle: Klucel (hydroxypropylcellulose) (HPC)",115 % of control
O=[N+]([O-])c1cc([N+](=O)[O-])c(/C=C/c2ccccc2)c([N+](=O)[O-])c1/C=C/c1ccccc1,T/C,[14],105 % of control
same,T/C,[12],102 % of control
same,T/C,[15],107 % of control
same,T/C,[13],94 % of control
same,T/C,[18],94 % of control
same,T/C,[17],89 % of control
CCN(CC)CC(C)(C)CO,T/C,[9],99 % of control
same,T/C,[10],101 % of control
same,T/C,"dose: 200.0 mg/kg/injection, schedule: Q01DX009 (ip), vehicle: saline with Tween-80",89 % of control
C[CH2][Pb]([CH2]C)([CH2]C)[N]1C(=O)c2ccccc2C1=O,T/C,"dose: 1.56 mg/kg/injection, schedule: Q01DX009 (ip), vehicle: Klucel (hydroxypropylcellulose) (HPC)",112 % of control
same,T/C,[19],109 % of control
